Like-named read-outs stand apart in the source and are kept apart here. Bounds are passed on as bounds.

We go through 31 compounds from patent US7411002B2, “Polycationic sulfonamides and use thereof” (priority 2006, dated 2008).

The nature of experiment [1]: Rapid-throughput BODIPY-TR cadaverine (BC) fluorescence displacement assay for binding affinity to LPS. The settings on record: half-maximal effective displacement of BODIPY-TR cadaverine probe from LPS; 50 mM Tris buffer, pH 7.4; read-out: Binding affinity (BC displacement) ED50 value. Here is the method: Rapid-throughput Fluorescence Displacement Assay for quantifying binding affinities to LPS. […] Polymyxin B (PMB), a peptide antibiotic known to bind and neutralize LPS^65 serves as the positive control and reference compound for every plate, enabling the quantitative assessment of repeatability and reproducibility (CV and Z′ factors) for the assay. Automated liquid handling is performed on a Precision 2000 automated microplate pipetting system, programmed using the Precision Power software, Bio-Tek Instruments Inc., VT, USA. Results are reported as half-maximal effective displacement of probe (ED50) (Tables A-F). In all experiments, Polymyxin B (PMB), a decapeptide antibiotic, known to bind and neutralize LPS,^66-69 is used as a reference compound.

For experiment [2], the system named is LPS-induced nitric oxide production in murine macrophage J774A.1 cells. Put plainly: NO inhibition (Griess nitrite assay) in LPS-stimulated murine macrophage J774A.1 cells. Type of experiment: cell-based. The settings on record: Mus musculus, J774.A1, 10 ng/ml LPS, 16 h. As for the experimental part: Assessment of neutralization of LPS toxicity: NO inhibition activity. Nitric oxide production is measured as total nitrite in murine macrophage J774A.1 cells using the Griess assay^70 as described previously.^71 J774A.1 cells are plated at ˜10^5/ml in a volume of 40 μl/well, in 384-well, flat-bottomed, cell culture treated microtiter plates and subsequently stimulated with 10 ng/ml lipopolysaccharide (LPS). Concurrent to LPS stimulation, serially diluted concentrations of test compounds are added to the cell medium and left to incubate for 16 h. Polymyxin B is used as reference compound in each plate. Positive-(LPS stimulation only) and negative-controls (J774A.1 medium only) are included in each experiment. Nitrite concentrations are measured by adding 40 μl of supernatant to equal volumes of Griess reagents (50 μl/well; 0.1% NED solution in ddH2O and 1% sulfanilamide, 5% phosphoric acid solution in ddH2O) and incubating for 15 minutes at room temperature in the dark. Absorbance at 535 nm is measured using a Molecular Devices Spectramax M2 multifunction plate reader (Sunnyvale, Calif.). Nitrite concentrations are interpolated from standard curves obtained from serially diluted sodium nitrite standards. IC50 values are determined for compounds that neutralize LPS inhibit NO production in a dose-dependent manner (Tables A-F). Results in this assay parallel those in the binding assay.

Experiment [3] deals with LPS-induced NF-κB induction in human embryonic kidney 293 cells cotransfected with TLR4, CD14 and MD2. Put plainly: Inhibition of LPS induction of NF-κB (seAP reporter) in HEK 293 cells cotransfected with TLR4, CD14 and MD2. Type of experiment: cell-based. The settings on record: for IC50: inhibition of LPS-induced NF-κB induction, HEK 293 TLR4/CD14/MD2 reporter cells, read-out: NFκβ inhibition IC50 value; for activity in words (LPS binding / cell-based cytokine inhibition, comment on Table F): qualitative comparison with spermine-sulfonamide counterparts. The text has this: Assessment of Inhibition of Cytokine Induction (NF-κB): The inhibition of induction of NF-κB (a key transcripitional activator of the innate immune system, leading to uncontrolled cytokine release^72,73 which ultimately leads to multiple organ failure and the shock syndrome) is quantified using human embryonic kidney 293 cells cotransfected with TLR4 (LPS receptor), CD14 and MD2 (co-receptors), available from InvivoGen, Inc. (HEK-Bluetm, San Diego, Calif.), as per protocols provided by the vendor. Stable expression of secreted alkaline phosphatase (seAP) under control of NF-κB/AP-1 promoters is inducible by LPS, and extracellulare seAP in the supernatant is proportional to NF-κB induction. seAP is assayed spectrophotometrically using an alkaline phosphatase-specific chromogen at 620 nm using a rapid-throughput, automated protocol employing a Bio-Tek P2000 liquid handler. Results showing the ability of polycationic sulfonamide compounds to inhibit the induction of NF-κB by LPS are shown in Tables A-F.

For the compound `CCCCCCCCS(=O)(=O)NCCCNCCCCNCCCN` [MQTS 2351, N^1-Octanylsulfonyl-1,14-diamino-5,10-diazabutadecane], the EC50 in experiment [1] worked out at 6.64 µM. Also, the IC50 stood at 1.44 µM in experiment [2] and 33.3 µM in experiment [3] (Homo sapiens, HEK293).
Turning to `CCCCCCCCCCCCS(=O)(=O)NCCCNCCCCNCCCN` [MQTS 2357, N^1-Dodecanylsulfonyl-1,14-diamino-5,10-diazabutadecane], the EC50 in experiment [1] was 2.69 µM. The IC50 in experiment [2] is 1.34 µM; in experiment [3] (Homo sapiens, HEK293), 0.41 µM.
For the compound `CCCCCCCCCCCCCCCCS(=O)(=O)N(CCCN)CCCCNCCCN` [MQTS 2363], in experiment [1], the EC50 was 45.6 µM. In addition, the IC50 was determined as 13.7 µM in experiment [2] and 2.68 µM in experiment [3] (Homo sapiens, HEK293). For the same compound, the “activity in words (LPS binding / cell-based cytokine inhibition, comment on Table F)” value in experiment [3] is “greatly diminished activity”.
Regarding `CCCCCCCCCCCCCCCCS(=O)(=O)NCCCCCCCCCCCCN` [MQTS 2369], in experiment [3] (Homo sapiens, HEK293), the IC50 turned out to be 200 µM. In experiment [3], the “activity in words (LPS binding / cell-based cytokine inhibition, comment on Table F)” value was “much lower activities”.
On to `CCCCCCCCCCCCCCCCS(=O)(=O)NCCCOCCCCOCCCN` [MQTS 2370], for which the EC50 in experiment [1] was more than 5000 µM. Further, the IC50 in experiment [2] was found to be 30.9 µM; in experiment [3] (Homo sapiens, HEK293) it was 22.4 µM. Also, the “activity in words (LPS binding / cell-based cytokine inhibition, comment on Table F)” value in experiment [3] is “much lower activities”.
Turning to `CCCCCCCCCCS(=O)(=O)NCCCNCCCCNCCCN` [MQTS 2377, N^1-Decanylsulfonyl-1,14-diamino-5,10-diazabutadecane], the EC50 in experiment [1] stood at 3.7 µM. Moreover, the IC50 in experiment [2] stood at 4.42 µM; in experiment [3] (Homo sapiens, HEK293), 0.5 µM.
On to `CCCCCCCCCCCCCCCCCCS(=O)(=O)NCCCNCCCCNCCCN` [MQTS 2378], for which the EC50 in experiment [1] came out at 6.01 µM. Besides, the IC50 in experiment [2] was 0.48 µM; in experiment [3] (Homo sapiens, HEK293) it was 0.36 µM.
For `CCCCCCCCS(=O)(=O)NCCCNCCCNCCCCNCCCN` [MQTS 2379, N^1-Octanylsulfonyl-1,18-diamino-5,9,14-triazaoctadecane], the EC50 in experiment [1] was determined as 2.84 µM. Besides, the IC50 in experiment [2] is 6.47 µM; in experiment [3] (Homo sapiens, HEK293), 0.816 µM.
With `CCCCCCCCCCCCCCCCCCS(=O)(=O)NCCCNCCCNCCCCNCCCN` [MQTS 2380, N^1-Octadecanylsulfonyl-1,18-diamino-5,9,14-triazaoctadecane], the EC50 in experiment [1] worked out at 4.45 µM. Besides, the IC50 was 0.23 µM in experiment [2] and 1.06 µM in experiment [3] (Homo sapiens, HEK293).
For `CCCCCCCCCCS(=O)(=O)NCCCNCCCNCCCCNCCCN` [MQTS 2381], in that order: 2.89 µM, 1.09 µM and 0.278 µM.
For `CCCCCCCCCCCCS(=O)(=O)NCCCNCCCNCCCCNCCCN` [MQTS 2382, N^1-Dodecanylsulfonyl-1,18-diamino-5,9,14-triazaoctadecane], in experiment [1], the EC50 is 2.92 µM. Moreover, the IC50 in experiment [2] was found to be 0.39 µM; in experiment [3] (Homo sapiens, HEK293), 0.19 µM.
For `CCCCCCCCCCCCS(=O)(=O)NCCCN(CCCNCCCNCCCCNCCCN)CCCNS(=O)(=O)CCCCCCCCCCCC` [MQTS 2390, N^1-Bis[N-dodecanylsulfonyl-3-aminopropyl]-1,18-diamino-5,9,14-triazaoctadecane], in that order: 6.82 µM, 0.51 µM and 16.4 µM.
In the case of `CCCCCCCCCCCCCCCCS(=O)(=O)NCCCN(CCCNCCCNCCCCNCCCN)CCCNS(=O)(=O)CCCCCCCCCCCCCCCC` [MQTS 2391], the EC50 in experiment [1] turned out to be 9.31 µM. Also, the IC50 was 5.2 µM in experiment [2] and 2.68 µM in experiment [3] (Homo sapiens, HEK293).
For `CCCCCCCCCCCCCCCCCCS(=O)(=O)NCCCN(CCCNCCCCNCCCN)CCCNS(=O)(=O)CCCCCCCCCCCCCCCCCC` [MQTS 2394, N^1-Bis[N-octadecanylsulfonyl-3-aminopropyl]-1,14-diamino-5,10-diazabutadecane], in experiment [1], the EC50 was determined as 28.3 µM. The IC50 in experiment [2] is 2330 µM; in experiment [3] (Homo sapiens, HEK293), 64 µM.
Consider `CCCCCCCCCCCCCCCCS(=O)(=O)NCCCN(CCCNCCCCNCCCN)CCCNS(=O)(=O)CCCCCCCCCCCCCCCC` [MQTS 2396], for which, in experiment [1], the EC50 is 26.4 µM. For the same compound, the IC50 in experiment [2] was determined as 15.1 µM; in experiment [3] (Homo sapiens, HEK293), 4.85 µM.
As to `CCCCCCCCCCCCCCCCCCS(=O)(=O)NCCCNCCCCNCCCCNCCCCNCCCNS(=O)(=O)CCCCCCCCCCCCCCCCCC` [MQTS 2401, N^1,N^14-Bis[N-octadecanylsulfonyl-3-aminopropyl]-1,14-diamino-5,10-diazabutadecane], the EC50 in experiment [1] is more than 5000 µM. For the same compound, the IC50 in experiment [3] amounted to 6.49 µM.
As to `CCCCCCCCS(=O)(=O)NCCCN(CCCNCCCCNCCCN)CCCNS(=O)(=O)CCCCCCCC` [MQTS 2406, N^1-Bis[N-octanylsulfonyl-3-aminopropyl]-1,14-diamino-5,10-diazabutadecane], the EC50 in experiment [1] came out at 2.17 µM. For the same compound, the IC50 in experiment [3] (Homo sapiens, HEK293) was determined as 0.669 µM.
For `CCCCCCCCCCCCCCCCS(=O)(=O)NCCCN(CCCN)CCCN` [MQTS 2409], in that order: 12.3 µM and 9.19 µM.
The corresponding values for `CCCCCCCCCCCCCCCCS(=O)(=O)NCCN(CCN)CCN` [MQTS 2410] are 3.54 µM and 0.379 µM.
In the case of `CCCCCCCCS(=O)(=O)NCCNCCCNCCN` [MQTS 2411], the EC50 in experiment [1] was determined as 10.6 µM. In addition, in experiment [3] (Homo sapiens, HEK293), the IC50 amounted to 13.8 µM.
For `CCCCCCCCCCCCS(=O)(=O)NCCNCCCNCCN` [MQTS 2412], in that order: 4.77 µM and 0.686 µM.
For `CCCCCCCCS(=O)(=O)NCCCNCCCNCCCN` [MQTS 2413], the EC50 in experiment [1] amounted to 6.7 µM. The IC50 in experiment [3] (Homo sapiens, HEK293) turned out to be 5.56 µM.
For `CCCCCCCCCCCCS(=O)(=O)NCCCNCCCNCCCN` [MQTS 2414], in experiment [1], the EC50 was 4.27 µM. Besides, in experiment [3] (Homo sapiens, HEK293), the IC50 was 0.363 µM.
The corresponding values for `CCCCCCCCS(=O)(=O)NCCCNC/C=C/CNCCCN` [MQTS 2415] are 12.5 µM and 12.7 µM.
In the case of `CCCCCCCCCCCCS(=O)(=O)NCCCNC/C=C/CNCCCN` [MQTS 2416], the EC50 in experiment [1] stood at 3.83 µM. In experiment [3] (Homo sapiens, HEK293), the IC50 came out at 0.522 µM. The “activity in words (LPS binding / cell-based cytokine inhibition, comment on Table F)” value in experiment [3] was “active”.
`CCCCCCCCCCS(=O)(=O)NCCCN(CCCNCCCNCCCCNCCCN)CCCNS(=O)(=O)CCCCCCCCCC` [MQTS 2417, N^1-Bis[N-decanylsulfonyl-3-aminopropyl]-1,18-diamino-5,9,14-triazaoctadecane]: in experiment [1], the EC50 was 1.16 µM. Moreover, the IC50 is 0.43 µM in experiment [2] and 2.2 µM in experiment [3] (Homo sapiens, HEK293).
As to `CCCCCCCC(=O)NCCCN(CCCNCCCNCCCCNCCCN)CCCNC(=O)CCCCCCC` [MQTS 2418], the EC50 in experiment [1] worked out at 1 µM. Also, the IC50 in experiment [2] was found to be 2.48 µM; in experiment [3] (Homo sapiens, HEK293) it was 3.17 µM. Further, the “activity in words (LPS binding / cell-based cytokine inhibition, comment on Table F)” value in experiment [3] is “greatly diminished activity”.
Regarding “N^1,N^14-Bis[N-decanylsulfonyl-3-aminopropyl]-1,14-diamino-5,10-diazabutadecane [MQTS 2398]”, in experiment [1], the EC50 came to 13.5 µM. The IC50 in experiment [3] stood at 4.2 µM.
The corresponding values for “N^1,N^14-Bis[N-dodecanylsulfonyl-3-aminopropyl]-1,14-diamino-5,10-diazabutadecane [MQTS 2399]” are 55.2 µM and 10.3 µM.
Take “N^1,N^14-Bis[N-hexadecanylsulfonyl-3-aminopropyl]-1,14-diamino-5,10-diazabutadecane [MQTS 2400]”: the EC50 in experiment [1] came out at 133 µM. For the same compound, the IC50 in experiment [3] worked out at 11.7 µM.
The corresponding values for “N^1,N^14-Bis[N-octanylsulfonyl-3-aminopropyl]-1,14-diamino-5,10-diazabutadecane [MQTS 2397]” are 2.6 µM and 0.607 µM.

Usually IC50 stands for the concentration at which inhibition is half-maximal.
